Measured values taken from the supplement of paper PMC4862054.
“And” between values parts separate entries of the source, which are not always exact repeats. Equal values may be shown once.

What was measured:
Settings in all cases: incubation time: 72 h
CAL-51 [1] = assay: drug sensitivity score (DSS), CellTox Green (DSS (AUC-based score)); higher = stronger drug effect (viability inhibition or cytotoxicity); extreme values may be limits of the assay
In short: (§1)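 The drug sensitivity score was computed from the area under the fitted dose-response curve. Breast cancer cell lines in 20 µl suspension went into 384-well plates holding compound at 5 concentrations (10-fold steps over a 10,000-fold, compound-specific range) for 72 h of incubation. CellTox Green fluorescence (485/520 nm) was read before CellTiter-Glo luminescence, the latter after 10 min at room temperature, and each plate was normalised to 0.1 % DMSO and a positive kill control.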

MDA-MB-436 [2] = assay: as above
In short: as §1

HDQ-P1 [3] = assay: as above
In short: as §1

BT-474 [4] = assay: as above
In short: as §1

CAL-120 = assay: as above
In short: as §1

CAL-148 [5] = assay: as above
In short: as §1

MCF-10A = assay: as above
In short: as §1

MDA-MB-468 [6] = assay: as above
In short: as §1

BT-549 [7] = assay: as above
In short: as §1

CAL-51 [8] = assay: drug sensitivity score (DSS), CellTiter-Blue viability (DSS (AUC-based score)); higher = stronger viability inhibition; extreme values may be limits of the assay
Method: (§2)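 DSRT with the CellTiter-Blue (resazurin reduction) viability readout, fluorescence 560/590 nm, 72 h incubation. Plates were normalised to DMSO and benzethonium chloride controls. DSS is computed from the area under the fitted dose-response curve (5 or 9 concentrations).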

MDA-MB-436 [9] = assay: as above
Method: as §2

DU-4475 = assay: as above
Method: as §2

HCC1143 = assay: as above
Method: as §2

HDQ-P1 [10] = assay: as above
Method: as §2

BT-474 [11] = assay: as above
Method: as §2

CAL-148 [12] = assay: as above
Method: as §2

MDA-MB-453 = assay: as above
Method: as §2

HCC1937 = assay: as above
Method: as §2

CAL-85-1 = assay: as above
Method: as §2

SK-BR-3 = assay: as above
Method: as §2

MFM-223 = assay: as above
Method: as §2

Hs578T = assay: as above
Method: as §2

MDA-MB-468 [13] = assay: as above
Method: as §2

HCC1599 = assay: as above
Method: as §2

MDA-MB-231 = assay: as above
Method: as §2

BT-549 [14] = assay: as above
Method: as §2

Row | Structure (SMILES) | drug sensitivity score (CAL-51 [1]) | drug sensitivity score (MDA-MB-436 [2]) | drug sensitivity score (HDQ-P1 [3]) | drug sensitivity score (BT-474 [4]) | drug sensitivity score (CAL-120) | drug sensitivity score (CAL-148 [5]) | drug sensitivity score (MCF-10A) | drug sensitivity score (MDA-MB-468 [6]) | drug sensitivity score (BT-549 [7]) | drug sensitivity score (CAL-51 [8]) | drug sensitivity score (MDA-MB-436 [9]) | drug sensitivity score (DU-4475) | drug sensitivity score (HCC1143) | drug sensitivity score (HDQ-P1 [10]) | drug sensitivity score (BT-474 [11]) | drug sensitivity score (CAL-148 [12]) | drug sensitivity score (MDA-MB-453) | drug sensitivity score (HCC1937) | drug sensitivity score (CAL-85-1) | drug sensitivity score (SK-BR-3) | drug sensitivity score (MFM-223) | drug sensitivity score (Hs578T) | drug sensitivity score (MDA-MB-468 [13]) | drug sensitivity score (HCC1599) | drug sensitivity score (MDA-MB-231) | drug sensitivity score (BT-549 [14])
1 | CN(c1ccccc1CNc1nc(Nc2ccc3c(c2)CC(=O)N3)ncc1C(F)(F)F)S(C)(=O)=O | 17.6 | 0 | 9.69 | 0 | 0 | 0 | 9.63 | 0 | 0.974 | – | – | – | – | – | – | – | – | – | – | – | – | – | – | – | – | –
2 | COc1ncc(-c2ccc3nccc(-c4ccnnc4)c3c2)cc1NS(=O)(=O)c1ccc(F)cc1F | 6.6 | 0 | 0 | 6.83 | 0 | 6.5 | 0.561 | 9.19 | 0 | 21.4 | 14.2 | 10.8 | 14.6 | 21.1 | 19.9 | 17.3 | 25.7 | 12.3 | 16.8 | 25 | 20.6 | 15.1 | 14.2 | 17 | 13.3 | 13.6
3 | C[C@@]1(C(=O)Nc2ccc(F)nc2)CCCN1c1nc(Nc2cc(C3CC3)n[nH]2)c2cccn2n1 | 10.5 | 0 | 4.62 | 0 | 3.17 | 2.31 | 6.69 | 18.2 | 0 | 9.17 | 2.82 | 9.27 | 9.58 | 16 | 0 | 6.09 | 5.98 | 6.32 | 10.6 | 5.88 | 10.1 | 5.68 | 7.88 | 11.5 | 11 | 6.82
4 | Nc1nccc(-c2c(-c3ccc(F)cc3)ncn2C2CCCCC2)n1 | 0 | 0 | 0 | 0 | 0 | 0 | 3.55 | 0 | 0 | – | – | – | – | – | – | – | – | – | – | – | – | – | – | – | – | –
5 | COc1c(C)cnc(Cn2cnc3c(Cl)nc(N)nc32)c1C [BIIB021] | 5.48 | 0 | 3.67 | 4.79 | 0 | 16 | 15.3 | 0 | 0 | 15.5 | 11.9 | 22 | 17 | 12.8 | 18.8 | 19.3 | 24.8 | 19.4 | 13.6 | 26.8 | 18.6 | 12.9 | 14.4 | 8.11 | 15.8 | 18.8
6 | CC(C)C[C@H](NC(=O)[C@H](Cc1ccccc1)NC(=O)c1cnccn1)B(O)O [Bortezomib] | 18.7 | 16.6 | 20.1 | 6.53 | 13.6 | 13.5 | 7.83 | 33.3 | 6.42 | 16.8 | 16.2 | 20.9 | 21.6 | 27.7 | 18.8 | 17.9 | 22.7 | 27.3 | 24.8 | 25.5 | 22.5 | 19.7 | 29.8 | 7.18 | 28.8 | 24.3
7 | CS(=O)(=O)OCCCCOS(C)(=O)=O [Busulfan] | 0 | 0 | 2.69 | 0 | 0 | 0 | 0 | 3.07 | 0 | 0 | 0 | 0 | 0 | 0 | 0 | 0 | 0 | 2.62 | 0 | 0 | 0 | 0 | 0 | 0 | 0 | 0
8 | O=c1[nH]cc(F)c(=O)[nH]1 [Fluorouracil] | 0 | 0.291 | 0 | 0 | 0 | 0 | 0 | – | 0 | 1.79 | 1.93 | 1.34 | 0 | 0 | 0 | 4.79 | 1.33 | 0 | 5.28 | 8.26 | 0 | 0 | 0.272 | 1.41 | 1.96 | 2.25
9 | O=P(O)(NCCCl)NCCCl [Ifosfamide mustard] | – | – | – | – | – | – | – | – | – | 0 | 0 | 0 | 0 | 0 | 0 | 0 | 0 | 0 | 0 | 0 | 0 | 0 | 0 | 0 | 0 | 0
10 | CS(=O)(=O)CCNCc1ccc(-c2ccc3ncnc(Nc4ccc(OCc5cccc(F)c5)c(Cl)c4)c3c2)o1 [Lapatinib] | 0 | 0 | 0 | 0 | 0 | 2.94 | 2.1 | 0 | 0 | 0 | 4.07 and 1.46 | 0 | 0 | 0 | 17.2 and 17.8 | 3.64 and 1.81 | 17.8 and 17 | – | 6.56 and 6.25 | 25.7 and 24.2 | – | 3.66 and 4.18 | 8.9 and 8.18 | – | – | 3.9 and 2.66
11 | CC(C)(C)c1cc(NC(=O)Nc2ccc(-c3cn4c(n3)sc3cc(OCCN5CCOCC5)ccc34)cc2)no1 [Quizartinib] | 0 | – | 0 | 0 | 0 | 0 | 0 | 0 | 0 | 0 | 0 | 0 | 0 | 0 | 0 | 0 | 0 | 0 | 0 | 0 | 0 | 0 | 0 | 0.62 | 0 | 3.75
12 | COc1cc(Nc2ncc(F)c(Nc3ccc4c(n3)NC(=O)C(C)(C)O4)n2)cc(OC)c1OC [R406] | – | – | – | – | – | – | – | – | – | 0 | 0 | 0 | 0 | 0 | 0 | 0 | 0 | 0 | 0 | 0 | 0 | 0 | 0 | 0 | 5.44 | 5.38
13 | CCS(=O)(=O)c1cccc(-c2cc(C(=O)NC3CCN(C)CC3)c(C)c3[nH]c4ncc(C)cc4c23)c1 [TAK-901] | – | 0 | 0 | 0 | 0 | 0 | 0 | 0 | 0.958 | 8.9 | 1.92 | 3.52 | 8.44 | 5.84 | 0 | 0 | 10.7 | 6.44 | 5.05 | 0 | 10.3 | 6.31 | 0.762 | 4.14 | 9 | 8.46
14 | Cc1cc(C(C)Nc2ccccc2)c2nc(N3CCOCC3)cc(=O)n2c1 (stereo unspecified) [TGX-221] | 0 | 0 | 11.9 | 0 | 0 | 0 | 1.09 | 0 | 0 | – | – | – | – | – | – | – | – | – | – | – | – | – | – | – | – | –
15 | COc1cc(Nc2ncc(F)c(Nc3ccc4c(n3)NC(=O)C(C)(C)O4)n2)cc(OC)c1OC [Tamatinib] | 1.13 | 0 | 0 | 0 | 0 | 0 | 0 | – | 0 | – | – | – | – | – | – | – | – | – | – | – | – | – | – | – | – | –
16 | c1ccc(C2CN3CCSC3=N2)cc1 (stereo unspecified) [Tetramisole] | – | – | – | – | – | – | – | – | – | 0 | 0 | 0 | 0 | 0 | 0 | 0 | 0 | 0 | 0 | 0 | 0 | 0 | 0 | 0 | 0 | 0
17 | C[C@@H]1CCN(C(=O)CC#N)C[C@@H]1N(C)c1ncnc2[nH]ccc12 [Tofacitinib] | 0 | 0 | 0 | 0 | 0 | 0 | 0 | 0 | 0 | – | – | – | – | – | – | – | – | – | – | – | – | – | – | – | – | –
18 | FC(F)c1nc2ccccc2n1-c1nc(N2CCOCC2)nc(N2CCOCC2)n1 [ZSTK474] | 0 | 0 | 0 | 0.64 | 0 | 0 | 0 | 0 | 0 | – | – | – | – | – | – | – | – | – | – | – | – | – | – | – | – | –
